From US10928398B2, “Method for double staining colocalized nuclear-markers in histological lymphoid or bone marrow tissue sample” (CORNELL UNIVERSITY, priority 2008, dated 2021)

Columns and labels:
[1] = test system: Myeloma; settings: cited from earlier work
[2] = test system: Rb phosphorylation by Cdk4/6 at serine 807/811 (pS807/811Rb) in lymphoma cells; assay: Double IHC PAX5/pS807/811Rb with image analysis of lymph node biopsies of a B cell lymphoma patient in a phase I trial; assay type: in vivo, human; settings: day 21 of therapy, 84.08% before treatment
Description: (§1) The double stained IHC slides were accessioned into the image analysis system and then loaded onto the machine in batches of 60. A robotic arm picked up each slide, one at a time, and loaded it onto the microscope. Via a motorized stage, the microscope moves and scans the slide, looking for tissue, the location of which varies slightly from slide to slide. Once it has found the tissue, the device scans the tissue and the camera records low resolution images. Using the scanned low resolution images, the inventor selected ten good areas for subsequent high resolution scanning and analysis. Numerous data points were then calculated for each of the ten areas per slide, and those data were averaged.
(§2) Since no counterstain was used in these slides, all identifiable cells are positive for at least one marker (e.g., in FIG. 3A, cells that express neither MUM1 nor pSRb are not visible). The characteristics used for the analysis (“classifiers”) were determined by a process whereby the inventor trained the software what was considered to be cells of each color. The software analyzed the high resolution images by first applying color parameters to decide if a nucleus was blue, red, or purple. It finds pixels within the appropriate range of color parameters as defined by hue, saturation, and intensity; objects too light or too dark, as determined by the classifiers, were not included in the analysis. […]

[3] = test system: Ki67 expression in lymphoma cells; assay: Double IHC PAX5/Ki67 with image analysis of lymph node biopsies of a B cell lymphoma patient in a phase I trial; assay type: in vivo, human; settings: day 21 of therapy, 97.52% prior to treatment
Description: as §1, §2

[4] = test system: MM cells (MUM1 positive) expressing Ki67 or pSRb; assay: Double IHC MUM1/Ki67 or MUM1/pSRb of bone marrow biopsies of multiple myeloma patients in a phase I/II trial; assay type: in vivo, human; settings: for Effect on cycling of MM cells (Ki67, pSRb): MM patient bone marrow, after treatment for 8 days
Protocol: In hematopoietic cancer biopsies, the non-cancer hematopoietic and immune cells must be excluded. In this example, multiple myeloma (MM) cells were identified in biopsy samples with an anti-MUM1 antibody and a detection system yielding a red signal. Specificity of MUM1 for myeloma cells in MM biopsies is estimated at ˜99%, thus excluding non-MM cells from the analysis. Double IHC was performed to detect cell cycle molecules in situ in MM cells. Each slide was stained for MUM1 (above) using Bond™ Polymer AP Red Detection System (DS9305, Leica, Bannockburn, Ill.) to afford a red pigment, and for the cell cycle molecule with Blue Alkaline Phosphate Substrate Kit (Vector Laboratories, Burlingame, Calif.) to afford a blue pigment. The cell cycle molecules, including Ki67 and pSRb, are nuclear. With these particular chromogen systems, double staining yielded MM cells with either a red nuclear signal if the cell was not proliferating or a purple nuclear signal if the MM cells were proliferating (positive for the cell cycle molecule in question). Cells with a blue nuclear signal ([…]) were non MM cells (FIG. 3A) that were proliferating.
To compute the percentage of MM cells expressing various cell cycle molecules, purple (MUM1+/cell cycle molecule+) cells were manually counted as a percentage of purple cells plus red (MUM1+/cell cycle molecule negative) cells. This manual method of analysis can be performed with any standard microscope.
To increase the accuracy, the same slides were first loaded in batches of 60 into an image analysis system, which performs photographic digital scans of each slide. Using an automatic image analyzer, the number of cells with a purple nucleus and those with a red nucleus in a given area was determined. The counts were performed in triplicate. The percentage of MM cells in the proliferative stage represented by the cell cycle molecule targeted is the number of purple cells divided by the number of purple and red cells. […] The intensity of positive staining was scored in comparison to expression in B cells from serial sections of a single tonsil control slide, run in parallel with the marrow slides. […]
IHC was performed on 4 micron sections of paraffin-embedded bone marrow tissues using a Leica Microsystems (Bannockburn, Ill.) Bond Max automated immunostainer. MUM1 MM cells were detected using an anti-MUM1 mouse monoclonal antibody (Mab) (Dako, Carpinteria, Calif.) and the Bond™ Polymer AP Red Detection System (Leica). Simultaneous expression of other proteins was detected with monoclonal antibodies to Ki-67, cyclin D1, cyclin D2, cyclin D3, MCM2, MCM7, skp2, p16, p18, p21, p27, Rb, c-myc, Cdk4 and Cdk6 and polyclonal rabbit antisera to either pSer^807/811, pSer^608 or pSer^780 of human Rb. […]

[5] = test system: relapsed MM; assay: Time to progression of relapsed MM patients receiving high-dose Dex in prospective clinical trials; assay type: in vivo, human
Description: High-dose pulsed dexamethasone (Dex) is one of the preferred treatments for relapsed MM patients and is currently the accepted gold standard against which investigational drugs are being tested. The predictors of outcome for relapsed patients while on Dexamthasone (Dex) treatment have not been well established. These predictors were prospectively evaluated using the Ki-67/MUM1 markers in patients with relapsed MM receiving Dex in consecutive, prospective clinical trials. Time to progression is defined as date of Dex initiation to date of progressive disease (PD). Sixteen patients with relapsed MM were evaluated.

For `CC(C)C[C@H](NC(=O)[C@H](Cc1ccccc1)NC(=O)c1cnccn1)B(O)O` [PS-341(bortezomib), bortezomib], the “Responsiveness, % of patients” value [1] is given as 30%.
For `CC(=O)c1c(C)c2cnc(Nc3ccc(N4CCNCC4)cn3)nc2n(C2CCCC2)c1=O` [PD-332991], the “pS807/811Rb found in % of lymphoma cells” value [2] was 2.14%, the “Ki67 expression in % of lymphoma cells” value [3] was 23.13% and the “MM patients showing similar efficacy” value ([4]; 11/11 MM patients) was 100%. For the same molecule, the “Effect on cycling of MM cells (Ki67, pSRb)” value [4] was “great efficacy”, the “Effect on cycling of MM cells (Ki67, pSRb)” value ([4]; listed as CDk4/6 inhibitor) was “no longer cycling” and the “Cycling of MM cells after cessation of drug” value ([4]; biopsies 6 days after cessation of drug administration) was “returned to cycling in percentages comparable to what was observed prior to treatment”.
In the case of `C[C@@H]1C[C@H]2[C@@H]3CCC4=CC(=O)C=C[C@]4(C)[C@@]3(F)[C@@H](O)C[C@]2(C)[C@@]1(O)C(=O)CO` [Dex, dexamethasone], the “Patients showing progressive disease” value ([5]; 16 patients with relapsed MM, n=9) is reported as 56% and the “Median time to progressive disease” value ([5]; patients with progressive disease, from Dex initiation) is reported as 87 days.
